Results as given in patent publication US12702712B2, “Enteroendocrine cell-targeting polymer substance conjugated with photosensitizer, and medical use thereof for ameliorating metabolic disease” (The Catholic University of Korea Industry-Academic …, priority 2020, dated 2026).

What was measured:
[1] = Singlet oxygen formation in aqueous phase (SOSG fluorescence, laser irradiation); settings: 5 μg/mL in aqueous phase with SOSG; laser 670 nm, 4 J/cm^2, 20 mW/cm^2, 200 seconds
Method: Singlet oxygen sensor green (SOSG), which is a fluorescent detecting substance that directly reacts with singlet oxygen, was dispersed in an aqueous phase, oleic acid-polyethylene glycol-chlorin e6 (5 μg/mL) was added thereto, and the resulting mixture was mixed. As a comparative example, chlorin e6 (5 μg/mL) or polyethylene glycol-chlorin e6 (5 μg/mL) was used. When OA-PEG-Ce6 and SOSG coexisted in the aqueous phase, the mixture was irradiated with a laser (670 nm) (4 J/cm^2, 20 mW/cm^2, 200 seconds), and the degree of fluorescence was measured by an RF analyzer.

[2] = Dispersion in aqueous phase; format: physicochemical; settings: water
[3] = tested on: Human duodenal cells (HUTU-80); assay: Intracellular uptake by flow cytometry; format: cell-based; settings: 2 μg/ml (based on chlorin e6), 1 hour and 4 hours
Method: Thereafter, the cells were treated with OA-PEG-Ce6 and polyethylene glycol-chlorin e6 as a comparative group at a concentration of 2 μg/ml (based on chlorin e6) for 1 hour and 4 hours, respectively. Thereafter, the cells were washed three times with DPBS, collected, and analyzed by a flow cytometer (BD FACSCanto II).

[4] = tested on: Human duodenal cells (HUTU-80); assay: Intracellular distribution by confocal laser scanning microscopy; format: cell-based; settings: 2 μg/ml (based on chlorin e6), 1 hour; CLSM
Method: (§1) Human duodenal cells (HUTU-80) and canine kidney epithelial cells (MDCK) were treated with OA-PEG-Ce6 and polyethylene glycol-chlorin e6 at a concentration of 2 μg/ml (based on chlorin e6) for 1 hour. Thereafter, the cells were washed three times with DPBS and fixed with 4% paraformaldehyde, and the cell nuclei were stained at 4° C. Thereafter, cell images were confirmed under a confocal laser scanning microscope (CLSM).

[5] = tested on: canine kidney epithelial cells (MDCK); assay: as above; format: cell-based; settings: 2 μg/ml (based on chlorin e6), 1 hour; CLSM
Method: as §1

[6] = tested on: Human duodenal cells (HUTU-80); assay: Intracellular active oxygen formation (DCFDA, confocal microscope); format: cell-based; settings: 2 μg/ml (based on chlorin e6), 2 hours, light 0, 0.5, 1 and 1.5 J/cm^2, increasing intensity
Method: Thereafter, the cells were treated with OA-PEG-Ce6 at a concentration of 2 μg/ml (based on chlorin e6) for 2 hours, and washed three times with DPBS. The cells were treated with DCFDA diluted in DPBS, cultured for 30 minutes, and further washed three times with DPBS. The cells were irradiated with a light with an intensity of 0, 0.5, 1 and 1.5 J/cm^2 to induce a reaction between DCFDA incorporated into the cells and singlet oxygen. Fluorescence appears when the two substances react. Thereafter, the cells were fixed with 4% paraformaldehyde, the cell nuclei were stained with DAPI, and images were confirmed under a confocal microscope.

[7] = tested on: Human duodenal cells (HUTU-80); assay: Competitive inhibition of uptake in presence of fatty acid (flow cytometry); format: cell-based; settings: 10 μg/ml (based on chlorin e6) with 0.10 to 10.00 mg/ml oleylethanolamine, 2 hours
Method: Thereafter, the cells were treated with both 0.10 to 10.00 mg/ml oleylethanolamine and 10 μg/ml OA-PEG-Ce6 (based on chlorin e6) and cultured for 2 hours. Thereafter, the cells were washed three times with DPBS, collected, and analyzed by a flow cytometer (BD FACSCanto II).

[8] = molecular target: T1, HEK-293 cells expressing GPR119 (Homo sapiens, UniProt Q8TDV5); assay: Uptake according to GPR119 expression level (flow cytometry); format: cell-based; settings: GPR119 expression vector 0, 4 and 8 μg, 2 μg/ml (based on chlorin e6)
T1 construct: expressed in transfected cells; host or cells: HEK-293
T1 sequence (Q8TDV5 1-335): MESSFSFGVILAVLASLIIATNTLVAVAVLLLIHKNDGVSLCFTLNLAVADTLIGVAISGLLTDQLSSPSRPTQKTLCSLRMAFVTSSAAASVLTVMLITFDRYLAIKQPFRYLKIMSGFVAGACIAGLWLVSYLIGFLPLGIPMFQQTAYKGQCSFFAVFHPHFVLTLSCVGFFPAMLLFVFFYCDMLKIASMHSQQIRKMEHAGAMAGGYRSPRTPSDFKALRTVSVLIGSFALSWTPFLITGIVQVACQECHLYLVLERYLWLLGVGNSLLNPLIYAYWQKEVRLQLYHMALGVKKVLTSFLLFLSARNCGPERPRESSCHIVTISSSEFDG
Method: In order to confirm the mechanism by which OA-PEG-Ce6 targets enteroendocrine cells, human fetal kidney cells (HEK-293) expressing G protein-coupled receptor 119 (GPR119), which is a receptor known to recognize fatty acids, were produced.
After 24 hours, a GPR119 expression vector (0, 4 and 8 μg) and polyethyleneimine (PEI) were added to a serum-free medium and mixed for 30 minutes so as to form a complex, and then each cell was treated with the complex for 4 hours. Thereafter, the medium was replaced with a medium containing bovine serum, and GPR119 was allowed to be expressed by culturing the cells for 48 hours. It was confirmed by western blotting whether GPR119 was expressed.
HEK-293 cells expressing GPR119 were treated with OA-PEG-Ce6 and polyethylene glycol-chlorin e6 as a comparative group at a concentration of 2 μg/ml (based on chlorin e6) for 1 hour and 4 hours, respectively. Thereafter, the cells were washed three times with DPBS, collected, and analyzed by a flow cytometer (BD FACSCanto II).

[9] = Obesity amelioration: body weight and fat mass after photodynamic therapy; format: in vivo, C57BL6 mice; settings: high-fat diet mice, oral 10 mg/kg (based on chlorin e6), 22 days; for body weight, last day relative to before therapy, administration+light irradiation / fat mass, last day relative to before therapy, administration+light irradiation: laser 0.7 J/cm^2, repeated after 4 days; for fat mass, last day relative to before therapy, administration+light irradiation / fat mass, last day relative to before therapy, administration only: EchoMRI; for body weight, last day relative to before therapy, administration only / fat mass, last day relative to before therapy, administration only: no light
Method: After 4 days, photodynamic therapy was performed once again by the same method, and then, changes in body weight and fat mass were measured every other day for 22 days. The experimental results were shown in a bar graph by dividing the body weight and fat mass on the last day of the experiment by the body weight and fat mass before the photodynamic therapy and then converting the obtained values into percentages. Fat mass was measured with EchoMRI-500 (Echo MRI, Houston, TX).

GIP = assay: Plasma GIP by ELISA after photodynamic therapy; format: in vivo, C57BL6 mice; settings: high-fat diet mice, oral 10 mg/kg (based on chlorin e6), after 22 days; for plasma GIP concentration, administration+light irradiation: laser 0.7 J/cm^2, repeated after 4 days; for plasma GIP concentration, administration only: no light
Method: (§2) After 4 days, photodynamic therapy was performed once again by the same method, and then, mouse blood was collected after 22 days. Plasma was isolated from blood to measure the concentrations of GIP (Merk Millipore, USA) and insulin (anti-insulin+pro insulin antibody (10 μg/ml, ab8304, Abcam)) by enzyme-linked immunosorbent assay (ELISA).

insulin = assay: Plasma insulin by ELISA after photodynamic therapy; format: in vivo, C57BL6 mice; settings: high-fat diet mice, oral 10 mg/kg (based on chlorin e6), after 22 days; for plasma insulin concentration, administration+light irradiation: laser 0.7 J/cm^2, repeated after 4 days; for plasma insulin concentration, administration only: no light
Method: as §2

[10] = tested on: Human duodenal cells (HUTU-80)
Method: (§3) Human duodenal cells (HUTU-80) and canine kidney cells (MDCK) were aliquoted at a density of 1×10^4 cells/well in 0.2 ml portions in each well of a 96-well plate and cultured under conditions of 37° C. and 5% CO2 for 24 hours. On the next day, each well was treated with OA-PEG-Ce6 or polyethylene glycol-chlorin e6 at a concentration of 0.25 to 10 μg/ml (based on chlorin e6), and the corresponding treatment was performed by dividing a light non-irradiation group and a light irradiation group (irradiated with a laser with a wavelength of 671 nm at an intensity of 2 J/cm^2). Thereafter, cell viability was confirmed by the MTT test method.

[11] = mouse, in vivo, po, 10 mg/kg
Method: C57BL6 mice were fed a high-fat diet for 8 weeks to induce obese and diabetic conditions, and were divided into a control (PBS), a light irradiation group (Laser), a polyethylene glycol-chlorin e6 adiministration group (PC), a polyethylene glycol-chlorin e6 adiministration+light irradiation group (PCL), an OA-PEG-Ce6 adiministration group (OPC) and an OA-PEG-Ce6 adiministration+light sirradiation group (OPCL). Each group was orally administered the treated substance at a concentration of 10 mg/kg (based on chlorin e6), and after 30 minutes, a catheter was injected for endoscopic access and a laser was irradiated through the mouth.
Meanwhile, the accumulation degree of photosensitizer in the removed duodenum was confirmed with a fluorescence-labeled organism bioimaging instrument (Neo Science), and the fluorescence intensity of each tissue was graphically shown.

[12] = tested on: Human duodenal cells (HUTU-80); assay: Cytotoxicity and phototoxicity, MTT test; settings: for treatment concentration at which cell viability decreased, light irradiation group: laser 671 nm, 2 J/cm^2, concentration based on chlorin e6
Method: as §3

[13] = tested on: canine kidney cells (MDCK); assay: Cytotoxicity and phototoxicity, MTT test; settings: 0.25 to 10 μg/ml (based on chlorin e6), no light
Method: as §3

For `C=Cc1c(C)c2cc3nc(c(CC(=O)O)c4[nH]c(cc5nc(cc1[nH]2)C(C)=C5CC)c(C)c4C(=O)O)[C@@H](CCC(=O)O)[C@@H]3C` [chlorin e6], the “ability to form active oxygen (singlet oxygen)” value [1] was “could hardly form active oxygen” and the “dispersion in the aqueous phase” value [2] was “could not be dispersed in the aqueous phase”.
For “oleic acid-polyethylene glycol-chlorin e6 [OA-PEG-Ce6]”, the “dispersion in the aqueous phase” value [2] was “well dispersed in water”, the “amount absorbed by the cells” value [3] was “more absorbed by the cells than polyethylene glycol-chlorin e6 (PC)” and the “incorporation into cells versus conjugate without targeting substance” value [4] was “more incorporated into cells than polyethylene glycol-chlorin e6 (PC)”. The “incorporation into HUTU-80 versus MDCK cells” value [5] was “more incorporated into human duodenal cells (HUTU-80) than in canine kidney epithelial cells (MDCK)”, the “intracellular active oxygen generation (DCFDA green fluorescence)” value [6] was “generated a large amount of active oxygen” and the “intracellular uptake (fluorescence intensity) with increasing oleylethanolamine” value [7] was “intracellular uptake was reduced”. The “intracellular accumulation rate with increasing GPR119 expression” value [8] was “partially increased”, the “body weight, last day relative to before therapy, administration+light irradiation” value [9] was 83.6% and the “fat mass, last day relative to before therapy, administration+light irradiation” value [9] was 47.2%. For the same molecule, the “body weight, last day relative to before therapy, administration only” value [9] was 91.1%, the “fat mass, last day relative to before therapy, administration only” value [9] was 62.8% and the “plasma GIP concentration, administration+light irradiation” value (GIP) was 177.7 pg/mL. For the same molecule, the “plasma GIP concentration, administration only” value (GIP) was 435.5 pg/mL, the “plasma insulin concentration, administration+light irradiation” value (insulin) was 758.0 pg/mL and the “plasma insulin concentration, administration only” value (insulin) was 210.5 pg/mL. The “concentration at which cell viability decreased, light non-irradiation group” value [10] was at least 2500 ng/mL, the “accumulation degree of photosensitizer in the duodenum” value [11] was “remarkably large amount of photosensitizer was accumulated” and the “treatment concentration at which cell viability decreased, light irradiation group” value [12] was at least 0.5 µg/mL.
With “polyethylene glycol-chlorin e6 [reference compound]” the “dispersion in the aqueous phase” value [2] was “well dispersed in water”, the “body weight, last day relative to before therapy, administration+light irradiation” value [9] was 90.1% and the “fat mass, last day relative to before therapy, administration+light irradiation” value [9] was 60.0%. The “body weight, last day relative to before therapy, administration only” value [9] was 93.1%, the “fat mass, last day relative to before therapy, administration only” value [9] was 68.4% and the “plasma GIP concentration, administration+light irradiation” value (GIP) was 339.6 pg/mL. The “plasma GIP concentration, administration only” value (GIP) was 289.1 pg/mL, the “plasma insulin concentration, administration+light irradiation” value (insulin) was 374.3 pg/mL and the “plasma insulin concentration, administration only” value (insulin) was 304.3 pg/mL. The “change in cell viability, light non-irradiation group” value ([12]; 0.25 to 10 μg/ml (based on chlorin e6), no light) was “almost no change in cell viability”, the “treatment concentration at which cell viability decreased, light irradiation group” value [12] was at least 2.5 µg/mL and the “change in cell viability, light non-irradiation group” value [13] was “no change in the cell viability”.
